# Test results taken from US20240327415A1, “Multicomponent Complexes, Including Salts, Crystalline Forms, and Hydrates and Solvates of ENT1 Inhibitors” (iTeos Belgium SA, priority 2023, published 2024).
# Assays:
# Type in all cases: physicochemical
# [1] = salt screen, XRPD of damp, dried and 40° C./75% RH stored samples (Salt Preparation Methods 1 and 2); set-up: key: A = amorphous; Evap. = isolated via evaporation
# Protocol: Salt Preparation Method 1: Approximately 25 mg of Compound 1 (free base) was weighed out into 1.5 mL screw-cap vials and a stirrer bar was added. For solid counterions, the appropriate amount of acid (1.0 or 2.0 equiv.) was weighed into separate 1.5 mL screw-cap vials. 100 μL of the appropriate solvent system was added to both the Compound 1 and the solid counterions. Stock solutions of liquid counterions were prepared, such that 100 μL contained 1.0 or 2.0 equiv. of acid. See counterion and solvent lists in Table 60 and Table 61 respectively.
# The samples were stirred at 40° C. for 5-10 min and then the acid solutions were added to Compound 1, rinsing out the transfer vial with a further 50 μL of solvent. […] Experiments were temperature cycled between 40° C. and 5° C. (1 h hold; 0.1° C./min ramp/cool) for ca. 24-68 h. Anti-solvent addition (ASA) was carried out to slurries at 5° C. then experiments were heated to 30° C. over 1 h. ASA was carried out at 30° C. or 40° C. where clear solutions or gums were observed.
# Temperature cycling was then continued for ca. 16-69 h, followed by further ASA and temperature cycling if required. Material was isolated at 5° C. and analyzed damp by XRPD. All isolated material was dried under vacuum at ca. 40° C. for ca. 17-91 h then re-analyzed by XRPD. The XRPD plate was stored at 40° C./75% RH for 24-48 h and then samples re-analyzed. Solutions were stored uncapped at ambient temperature to evaporate. Any residual solids were analyzed by XRPD.
# Salt Preparation Method 2: The general procedure adopted in preparing the potential salts is outlined below. A known mass of Compound 1 (free base) and a known volume of the appropriate solvent system were added to 20 mL scintillation vials. The required mol. equiv. of the appropriate counterions were added to the vials as solutions or slurries in the corresponding solvent system.
# The experiments were stirred at 40° C. for ca. 1 h, and then temperature cycled between 40° C. and 5° C. with 0.1° C./min ramp and 1 h hold between each step. Anti-solvent additions and subsequent slurrying at 5° C. were employed in order to facilitate crystallization. […] The damp and dried solids were subsampled and analyzed by XRPD. Where applicable, the dried solids were stored at 40° C./75% RH for 24-48 h in order to improve the crystallinity and/or facilitate solid form conversion to the desired form.
# [2] = seven-day solid stability studies (ambient; 40° C./75% RH; 80° C.), XRPD and HPLC; set-up: key to XRPD Analysis: Amorphous Compound 1 (free base); Crystalline Form 1 Compound 1 (free base); conditions: for degradation by HPLC: after 7 days storage at 40° C./75% RH and ambient conditions; for decrease in purity by HPLC: after 7 days storage at 80° C.
# Protocol: In the experiment, one set of vials was exposed to ambient light, temperature and humidity conditions. Another was exposed openly to 40° C. and 75% RH conditions and a third was sealed and exposed to 80° C. conditions. After 7 days, XRPD and HPLC measurements were collected.
# Example 12-Stability Studies of Amorphous Compound 1 (free base) and Crystalline Form 1 Compound 1 (free base): Seven-day stability studies were carried out comparing amorphous Compound 1 (free base) and crystalline Form 1 Compound 1 (free base) at 40° C./75% RH, under ambient conditions and at 80° C. After storage at 40° C./75% RH and 80° C., the amorphous material formed glassy solids which were pale yellow (40° C./75% RH) or orange (80° C.). It is likely that the material melted and re-solidified at 80° C. and deliquesced at 40° C./75% RH. […] (decrease in purity of ca. 11% area).
# Example 15-Stabilities Studies-Crystalline Form 3 Compound 1 di(hydrogen sulfate) and Crystalline Form 4 Compound 1 mono(hydrogen sulfate): Seven-day stability studies were carried out on the prepared crystalline Form 3 Compound 1 di(hydrogen sulfate) and crystalline Form 4 Compound 1 mono(hydrogen sulfate) using the following conditions: (1) Ambient light, temperature and humidity conditions (open vial); (2) 40° C./75% RH (open vial); and (3) 80° C. (closed vial). After 7 days of storage under the specified conditions, XRPD and HPLC analyses were carried out on the residual solid materials, and the results are summarized in Table 51.
# Example 18-Seven Day Stability Study on Crystalline Form 2 Compound 1 di(hydrogen sulfate) trihydrate: A 7-day stability study was conducted on crystalline Form 2 Compound 1 di(hydrogen sulfate) trihydrate using the following conditions: (1) ambient light, temperature, and humidity conditions (open vial); (2) 40° C., 75% RH (open vial); and (3) 80° C. (closed vial). After 7 days of storage under the specified, XRPD and HPLC analyses were carried out on the residual solid materials.
# [3] = Dynamic Vapor Sorption (DVS)
# Protocol: (§1) METHOD A: In Example 11, approximately 5-15 mg of sample was placed into a mesh vapor sorption balance pan and loaded into either a DVS Intrinsic or DVS Advantage dynamic vapor sorption balance by Surface Measurement Systems. The sample was subjected to a ramping profile from 40-90% relative humidity (RH) at 10% increments, maintaining the sample at each step until a stable weight had been achieved (dm/dt 0.004%, minimum step length 30 minutes, maximum step length 500 minutes) at 25° C. After completion of the sorption cycle, the sample was dried using the same procedure to 0% RH and then a second sorption cycle back to 40% RH was carried out. Two cycles were performed. The weight change during the sorption/desorption cycles were plotted, allowing the hygroscopic nature of the sample to be determined. XRPD analysis was then carried out on the residual solid.
# as §1, with “B:” for “A:”, “Examples 2A, 3, 14, and 17,” for “Example 11,”, “10-20” for “5-15”, “determined.” for “determined. XRPD analysis was then carried out on the residual solid.”
# as §1, with “Approximately 10-20” for “METHOD A: In Example 11, approximately 5-15”, “RH” for “relative humidity (RH)”, “min,” for “minutes,”, “min)” for “minutes)”, “determined.” for “determined. XRPD analysis was then carried out on the residual solid.”
# [4] = Benzenesulfonic acid, 2 equiv., Acetonitrile, AS tBME
# [5] = Benzenesulfonic acid, 2 equiv., Ethanol, AS Heptane
# [6] = Benzenesulfonic acid, 2 equiv., Ethyl acetate, AS Heptane
# [7] = Benzenesulfonic acid, 2 equiv., IPA:H2O (75:25), AS tBME
# [8] = Benzenesulfonic acid, 2 equiv., MEK, AS Heptane
# [9] = Benzenesulfonic acid, 2 equiv., THF, AS Heptane
# [10] = Hydrochloric acid, 1 equiv., Acetonitrile, AS tBME, (evap.)
# [11] = Hydrochloric acid, 1 equiv., Ethanol*, AS Heptane, (evap.)
# [12] = Hydrochloric acid, 1 equiv., Ethyl acetate, AS Heptane
# [13] = Hydrochloric acid, 1 equiv., IPA:H2O (75:25% v/v), AS tBME, (evap.)
# [14] = Hydrochloric acid, 1 equiv., MEK, AS Heptane
# [15] = Hydrochloric acid, 1 equiv., THF, AS Heptane
smiles,measurement,setting,value
"O=S(=O)(O)c1ccccc1 [Benzenesulfonic acid, 2 equiv.]",XRPD Analysis 40° C. 75% RH,[1]; [4],A
same,XRPD Analysis Damp,[1]; [4],A
same,XRPD Analysis Dry,[1]; [4],A
same,XRPD Analysis 40° C. 75% RH,[1]; [5],A
same,XRPD Analysis Damp,[1]; [5],A
same,XRPD Analysis Dry,[1]; [5],A
same,XRPD Analysis 40° C. 75% RH,[1]; [6],A
same,XRPD Analysis Damp,[1]; [6],A
same,XRPD Analysis Dry,[1]; [6],A
same,XRPD Analysis 40° C. 75% RH,[1]; [7],A
same,XRPD Analysis Damp,[1]; [7],A
same,XRPD Analysis Dry,[1]; [7],A
same,XRPD Analysis 40° C. 75% RH,[1]; [8],A
same,XRPD Analysis Damp,[1]; [8],A
same,XRPD Analysis Dry,[1]; [8],A
same,XRPD Analysis 40° C. 75% RH,[1]; [9],A
same,XRPD Analysis Damp,[1]; [9],A
same,XRPD Analysis Dry,[1]; [9],A
COc1cc(C(=O)O[C@@H]2CCCOc3cc(cc(OC)c3OC)C(=O)NCCCN3CCCN(CC2)CC3)cc(OC)c1OC [Form 1 Compound 1],XRPD Analysis,"[2]; 7 days, 40° C./75% RH",A
same,Post-Storage Observations,"[2]; 7 days, 80° C.",Orange glassy
same,Solid Purity,"[2]; 7 days, 80° C.",84.1 % area
same,XRPD Analysis,"[2]; 7 days, 80° C.",1
same,Post-Storage Observations,"[2]; 7 days, Ambient",White solid
same,Solid Purity,"[2]; 7 days, Ambient",99.9 % area
same,XRPD Analysis,"[2]; 7 days, Ambient",A
COc1cc(C(=O)O[C@@H]2CCCOc3cc(cc(OC)c3OC)C(=O)NCCCN3CCCN(CC2)CC3)cc(OC)c1OC.O=S(=O)(O)O [Form 4 mono(hydrogen sulfate)],HPLC,"[2]; 7 days, 40° C./75% RH (open vial)",99.87 % area
same,HPLC,"[2]; 7 days, 40° C./75% RH, open vial",99.87 % area
same,HPLC,"[2]; 7 days, 80° C. (closed vial)",99.64 % area
same,XRPD,"[2]; 7 days, 80° C. (closed vial)",Amorphous*
same,HPLC,"[2]; 7 days, 80° C., sealed",99.64 % area
same,XRPD,"[2]; 7 days, 80° C., sealed",Amorphous*
same,HPLC,"[2]; 7 days, Ambient (open vial)",99.89 % area
same,HPLC,"[2]; 7 days, Ambient, open vial",99.89 % area
same,HPLC,[2]; Input sample,99.66 % area
"Cl [Hydrochloric acid, 1 equiv.]",XRPD Analysis 40° C. 75% RH,"[1]; Hydrochloric acid, 1 equiv., Acetonitrile, AS tBME",A
same,XRPD Analysis Damp,[1]; [10],A
same,XRPD Analysis Dry,[1]; [10],A
same,XRPD Analysis 40° C. 75% RH,"[1]; Hydrochloric acid, 1 equiv., Ethanol*, AS Heptane",A
same,XRPD Analysis Damp,[1]; [11],A
same,XRPD Analysis Dry,[1]; [11],A
same,XRPD Analysis 40° C. 75% RH,[1]; [12],A
same,XRPD Analysis Damp,[1]; [12],A
same,XRPD Analysis Dry,[1]; [12],A
same,XRPD Analysis 40° C. 75% RH,"[1]; Hydrochloric acid, 1 equiv., IPA:H2O (75:25% v/v), AS tBME",A
same,XRPD Analysis Damp,[1]; [13],A
same,XRPD Analysis Dry,[1]; [13],A
same,XRPD Analysis 40° C. 75% RH,[1]; [14],A
same,XRPD Analysis Damp,[1]; [14],A
same,XRPD Analysis Dry,[1]; [14],A
same,XRPD Analysis 40° C. 75% RH,[1]; [15],A
same,XRPD Analysis Damp,[1]; [15],A
same,XRPD Analysis Dry,[1]; [15],A
COc1cc(C(=O)O[C@@H]2CCCOc3cc(cc(OC)c3OC)C(=O)NCCCN3CCCN(CC2)CC3)cc(OC)c1OC [amorphous Compound 1 (free base)],Post-Storage Observations,"[2]; 7 days, 40° C./75% RH",Pale yellow
same,Solid Purity,"[2]; 7 days, 40° C./75% RH",98.8 % area
same,XRPD Analysis,"[2]; 7 days, 40° C./75% RH",A
same,Post-Storage Observations,"[2]; 7 days, 80° C.",Orange glassy
same,Solid Purity,"[2]; 7 days, 80° C.",87.5 % area
same,XRPD Analysis,"[2]; 7 days, 80° C.",A
same,Post-Storage Observations,"[2]; 7 days, Ambient",White solid
same,Solid Purity,"[2]; 7 days, Ambient",98.9 % area
same,XRPD Analysis,"[2]; 7 days, Ambient",A
same,solid form by XRPD after storage,"[2]; 7 days, all storage conditions",remained amorphous
same,degradation by HPLC,[2],no significant degradation
same,decrease in purity by HPLC,[2],ca. 11 % area
same,Input Material Purity,[2]; before storage,98.8 % area
same,hygroscopicity,[3]; 25° C.,hygroscopic
COc1cc(C(=O)O[C@@H]2CCCOc3cc(cc(OC)c3OC)C(=O)NCCCN3CCCN(CC2)CC3)cc(OC)c1OC [crystalline Form 1 Compound 1 (free base)],solid form by XRPD after storage,"[2]; 7 days, 40° C./75% RH",amorphous material was recovered
same,solid form by XRPD after storage,"[2]; 7 days, 80° C.",amorphous material was recovered
same,solid form by XRPD after storage,"[2]; 7 days, ambient conditions",retained
same,degradation by HPLC,[2],no significant degradation
same,decrease in purity by HPLC,[2],ca. 15 % area
same,hygroscopicity,[3]; 25° C.,slightly hygroscopic
same,post-DVS sample (XRPD / appearance),[3]; DVS at 25° C.,predominantly amorphous material was recovered
same,moisture uptake (DVS),"[3]; at 80% RH, second sorption cycle, after likely formation of amorphous material",3.3%
same,moisture uptake (DVS),"[3]; between 40-80% RH, first sorption cycle, 25° C.",0.9%
same,moisture uptake (DVS),"[3]; between 80-90% RH, 25° C.",3.8%
